In data set [1] the test system is A549 cells. Briefly: MTT cytotoxicity assay, A549. It is filed as cell-based, human. The conditions noted are these: 48 h. On the technique in general: Formazan colour is commonly taken as a measure of viable cells.
In data set [2] the test system is A549 cells. Briefly: MTT cytotoxicity assay, A549. It is filed as cell-based, human. As to the method:
(§1) Moreover, to investigate the activity of synthesized complexes as potential anticancer agents, their cytotoxicity toward a series of human cancer cell lines and a non-cancer cell line (HaCaT) was evaluated using the MTT assay. […] In addition, we also determined the cytotoxic activity of free ligands toward selected cancer cells. […] However, this effect depends on the cell line. […] The best values of cytotoxic activity of compounds have been obtained after 72 h of cell incubation. Additionally, synthesized complexes had high sensitivity to A549 cells, so this cell line was selected as the research subject for antitumor activity.
(§2) MCF7 cell line (human breast adenocarcinoma, morphology: epithelial-like, ATCC: HTB-22) and A549 cell line (human lung adenocarcinoma, morphology: epithelial, ATCC: CCL-185); HaCaT (human keratinocyte) were cultured in Dulbecco’s Modified Eagle’s Medium (DMEM, Corning, Poland) with phenol red, supplemented with 10% fetal bovine serum (FBS) and with 1% streptomycin/penicillin. Du-145 cell line (human prostate carcinoma); derived from metastatic site: brain was cultured in minimum essential medium (MEM, Corning) with only 10% fetal bovine serum (FBS). Cultures were incubated at 37 °C under a humidified atmosphere containing 5% CO2. Cells were passaged using a solution containing 0.05% trypsin and 0.5 mM EDTA. All media and other ingredients were purchased from ALAB, Poland.
(§3) Since most of the studied compounds are insoluble in aqueous media (Dulbecco’s Modified Eagle’s Medium or minimum essential medium (MEM, Corning), therefore, they needed to be pre-dissolved in DMSO for biological tests. DMSO concentration was kept below 1% in each tested concentration of each compound. Cytotoxicity was assessed by MTT assay performed according to the protocols described previously in the following experimental approaches: 6 h + 24 h, 24 h + 24 h, and 72 h + 24 h. In brief, 5×10^3 per well (0.2 mL) in the two first approaches, while 1×10^4 cells in the case of longer incubation time were seeded in 96-well flat-bottom microtiter plate, were incubated with the tested complexes at various ranges of concentrations. After an appropriate incubation time of 6, 24, or 72 h, the cells were washed thee time with PBS and fresh medium was applied for a further 24 h in each approach. Various compound concentrations (dilutions in proper medium supplemented with 1% FBS) were tested in five replicates and repeated at least three times. Determined values of IC50 (concentration of a drug required to inhibit the growth of 50% of the cells) are given as mean + S.D. (Standard Deviation). IC50 values were determined, from the plots of cell viability in the presence of various concentrations of each compound by matching dose–response curves and using the Origin 9.0 software. Furthermore, post-treatment survival assessment of the treated cells was analyzed under an inverted fluorescence microscope (Olympus IC51, Japan) with an excitation filter 470/20 nm. For this, cells were stained with two versatile fluorescence dyes: fluorescein diacetate (FDA, 5 mg/mL) and propidium iodide (PI, 5 mg/mL) in standard conditions in the dark for 20 min. Before visualization, dyes were removed and cells were washed with PBS twice.

For data set [3], the system named is MCF-7 cells. The data set can be described thus: MTT cytotoxicity assay, MCF-7. It counts as cell-based, human. How it is done:
as §1, §2
as §3, with “Cytotoxicity was assessed by MTT assay performed according to the protocols described previously in the following experimental approaches: 6 h + 24 h, 24 h + 24 h, and 72 h + 24 h.” left out, “After an appropriate incubation time of 6, 24, or 72 h, the cells were washed thee time with PBS and fresh medium was applied for a further 24 h in each approach.” left out

Data set [4] deals with PANC-1 cells. The data set can be described thus: MTT cytotoxicity assay, PANC-1. It is filed as cell-based, human. As to the method:
as §1, §3

Data set [5] is described as follows: Solubility (qualitative). It counts as physicochemical. As to conditions: H2O:DMSO (100:1).
Data set [6] concerns Du-145 cells. The data set can be described thus: MTT cytotoxicity assay, Du-145. It is filed as cell-based, human. How it is done: as §1, §2
as §3, with “Cytotoxicity was assessed by MTT assay performed according to the protocols described previously in the following experimental approaches: 6 h + 24 h, 24 h + 24 h, and 72 h + 24 h.” left out, “After an appropriate incubation time of 6, 24, or 72 h, the cells were washed thee time with PBS and fresh medium was applied for a further 24 h in each approach.” left out

Data set [7] is described as follows: Partition coefficient, shake-flask method (n-octanol/PBS). It is filed as physicochemical. How it is done:
The partition coefficient was determined by the shake-flask method. A small amount of compound was dissolved in 5 mL PBS-saturated n-octanol. The sample was sonicated until all the compound was dissolved. Next, 5 mL of PBS saturated with n-octanol was added and the experiment proceeded as before. The resulting mixture was vortexed for 30 min in horizontal position. The sample was centrifuged for 2 min at 3700 rpm to obtain a phase separation. Next, 2 mL of each phase was taken. The next steps were a 5 min sonication and measurement of absorption spectra of the obtained solutions. The calibration curve was prepared in order to determine the concentration of the tested compounds in individual solutions. It was made using the absorption intensity of the compounds in series dilution solutions in PBS saturated with octanol or octanol saturated with PBS in the concentration range c = 1–100 nM.

Data on two molecules can be found in publication PMC8876511, “Two out of Three Musketeers Fight against Cancer: Synthesis, Physicochemical, and Biological Properties of Phosphino Cu^I, Ru^II, Ir^III Complexes” (Pharmaceuticals, 2022).

A word on the IC50: it is the concentration that inhibits the measured activity by half. A high value points to weaker potency in that assay. For `CCN(CC)C[P+](c1ccccc1)(c1ccccc1)[Ir-3]([Cl])([Cl])[C]1(C)C(C)=C(C)C(C)=C1C` [1a, Ir(η^5-Cp*)Cl2Ph2PCH2N(CH2CH3)2], the IC50 in data set [1] worked out at 45 ± 4 µM; in data set [2] (24 h) it was 68 ± 5 µM; in data set [2] (72 h), 12 ± 3 µM; in data set [3] (24 h) it was 189 ± 9 µM; in data set [3] (48 h) it was 184 ± 6 µM; in data set [3] (72 h), 85 ± 8 µM. The concentration for half-maximal inhibition (IC50) in data set [4] (24 h) was determined as 143 ± 3 µM; in data set [4] (72 h), 91 ± 13 µM; in data set [6] (24 h) it was 90 ± 5 µM; in data set [6] (48 h) it was 85 ± 9 µM; in data set [6] (72 h), 19 ± 3 µM. In addition, in data set [5], the “solubility in mixture of H2O:DMSO (100:1)” value was “well soluble”. Also, in data set [7], the “Experimental LogP (logPo/w)” value turned out to be 3.03.

“Ru(η^6-p-cymene)Cl2Ph2PCH2N(CH2CH3)2 [1b]”: the IC50 is 425 ± 38 µM in data set [1]; 59 ± 3 µM in data set [2] (24 h); 10 ± 1 µM in data set [2] (72 h); 295 ± 12 µM in data set [3] (24 h); 352 ± 25 µM in data set [3] (48 h); 145 ± 15 µM in data set [3] (72 h). Also, the IC50 in data set [4] (24 h) is 146 ± 5 µM; in data set [4] (72 h) it was 128 ± 14 µM; in data set [6] (24 h), 122 ± 11 µM; in data set [6] (48 h), 126 ± 12 µM; in data set [6] (72 h), 23 ± 2 µM. The “solubility in mixture of H2O:DMSO (100:1)” value in data set [5] is “well soluble”. The “Experimental LogP (logPo/w)” value in data set [7] worked out at 3.1.
